Results from patent publication US20250051346A1 (priority 2021, published 2025).
Like-named read-outs stand apart in the source and are kept apart here.

Columns and labels:
5-HT2A [1] = target: T1, 5-HT2A (Homo sapiens, UniProt P28223); assay: Serotonin 5-HT2A in vitro cellular IPOne agonism assay; type: cell-based; set-up: host or cells: CHO-K1; settings: CHO-K1 cells, 60 min
Procedure: Serotonin 5-HT2A In Vitro Cellular IPOne Agonism Assay. The 5-HT2A IPOne HTRF assay was performed at Epics Therapeutics S.A. (Belgium, FAST-0505I) using conventional methods. Briefly, CHO-K1 cells expressing human recombinant 5-HT2A receptor grown to mid-log phase in culture media without antibiotics were detached with PBS-EDTA, centrifuged, and resuspended in medium without antibiotics buffer. 20,000 cells are distributed in a 96 well plate and incubated overnight at 37° C. with 5% CO2.
For agonist testing, the medium was removed and 20 μl of assay buffer plus 20 μl of test compound or reference agonist were added in each well. The plate was incubated for 60 min. at 37° C. with 5% CO2.
After addition of the lysis buffer containing IP1-d2 and anti-IP1 cryptate detection reagents, plates were incubated 1-hour at room temperature, and fluorescence ratios were measured according to the manufacturer specification, with the HTRF kit.

5-HT2A [2] = target: T1, 5-HT2A; assay: Serotonin 5-HT2A in vitro radioligand binding competition assay; set-up: purchased Epics Therapeutics S.A. (Belgium), contract assay FAST-0505B; host or cells: membrane extracts; settings: [3H]-DOI radiotracer, membrane extracts, read-out: 5HT2A R[…] ACTIVITY
Procedure: Serotonin 5-HT2A In Vitro Radioligand Binding Competition Assay. The 5-HT2A radioligand binding competition assay was performed at Epics Therapeutics S.A. (Belgium, FAST-0505B) using conventional methods. Briefly, competition binding was performed in duplicate in the wells of a 96 well plate (Master Block, Greiner, 786201) containing binding buffer (optimized for each receptor), membrane extracts (amount of protein/well optimized for each receptor), radiotracer [^3H]-DOI (final concentration optimized for each receptor) and test compound. Nonspecific binding was determined by co-incubation with 200-fold excess of cold competitor. The samples were incubated in a final volume of 0.1 ml at a temperature and for a duration optimized for each receptor and then filtered over filter plates. Filters were washed six times with 0.5 ml of ice-cold washing buffer (optimized for each receptor) and 50 μl of Microscint 20 (Packard) were added in each well. The plates were incubated 15 min on an orbital shaker and then counted with a TopCount™ for 1 min/well.

T1 sequence (P28223 whole entry): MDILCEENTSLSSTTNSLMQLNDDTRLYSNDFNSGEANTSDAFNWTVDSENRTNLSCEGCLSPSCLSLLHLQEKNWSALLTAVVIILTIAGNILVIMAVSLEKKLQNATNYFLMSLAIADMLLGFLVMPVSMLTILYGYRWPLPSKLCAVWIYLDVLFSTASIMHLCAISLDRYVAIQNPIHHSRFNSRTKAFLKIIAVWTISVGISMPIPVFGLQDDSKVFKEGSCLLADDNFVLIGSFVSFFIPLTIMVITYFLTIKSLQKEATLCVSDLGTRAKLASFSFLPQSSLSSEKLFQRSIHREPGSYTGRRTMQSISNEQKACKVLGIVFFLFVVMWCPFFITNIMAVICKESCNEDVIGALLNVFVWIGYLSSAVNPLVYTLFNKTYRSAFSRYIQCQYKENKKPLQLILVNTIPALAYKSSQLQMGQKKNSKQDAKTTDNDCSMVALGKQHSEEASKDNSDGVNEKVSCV

Compound	EC50 (5-HT2A [1]; benzofurans) [µM]	IC50 (5-HT2A [2]; benzofurans) [µM]	EC50 (5-HT2A [1]; benzothiophenes) [µM]	IC50 (5-HT2A [2]; benzothiophenes) [µM]
c1ccc(COc2ccc3c4c(oc3c2)CCCNC4)cc1 [Compound 50, 8-(benzyloxy)-2,3,4,5-tetrahydro-1H-benzofuro[3,2-c]azepine]	> 10	1 to 10		
COc1cccc2oc3c(c12)CCN(C1CCC1)CC3 [Compound 15, 3-cyclobutyl-10-methoxy-2,3,4,5-tetrahydro-1H-benzofuro[2,3-d]azepine]	1 to 10	1 to 10		
CN1CCCc2oc3cc(F)ccc3c2C1 [Compound 9, 8-fluoro-2-methyl-2,3,4,5-tetrahydro-1H-benzofuro[3,2-c]azepine]	1 to 10	1 to 10		
Fc1cccc2oc3c(c12)CNCCC3 [Compound 7, 10-fluoro-2,3,4,5-tetrahydro-1H-benzofuro[3,2-c]azepine]	> 10	> 10		
COc1cccc2oc3c(c12)CNCCC3 [Compound 18, 10-methoxy-2,3,4,5-tetrahydro-1H-benzofuro[3,2-c]azepine]	1 to 10	1 to 10		
FC(F)(F)c1ccc2c3c(oc2c1)CCCNC3 [Compound 48, 8-(trifluoromethyl)-2,3,4,5-tetrahydro-1H-benzofuro[3,2-c]azepine]	1 to 10	1 to 10		
Fc1ccc2c3c(oc2c1)CCNCC3 [Compound 24, 8-fluoro-2,3,4,5-tetrahydro-1H-benzofuro[2,3-d]azepine]	0.01 to 0.1	0.101 to 1		
COc1ccc2c3c(oc2c1)CCCN(C)C3 [Compound 17, 8-methoxy-2-methyl-2,3,4,5-tetrahydro-1H-benzofuro[3,2-c]azepine]	> 10	> 10		
c1ccc2c3c(oc2c1)CCCNC3 [Compound 22, 2,3,4,5-tetrahydro-1H-benzofuro[3,2-c]azepine]	> 10	> 10		
Oc1ccc2c3c(sc2c1)CCNCC3 [Compound 80, 2,3,4,5-tetrahydro-1H-benzo[4,5]thieno[2,3-d]azepin-8-ol]			0.101 to 1	0.01 to 0.1
Fc1cccc2oc3c(c12)CN(C1CCC1)CCC3 [Compound 1, 2-cyclobutyl-10-fluoro-2,3,4,5-tetrahydro-1H-benzofuro[3,2-c]azepine]	> 10	> 10		
Fc1ccc2c3c(sc2c1)CCNCC3 [Compound 46, 8-fluoro-2,3,4,5-tetrahydro-1H-benzo[4,5]thieno[2,3-d]azepine]			< 0.01	0.01 to 0.1
COc1ccc2c3c(oc2c1)CCN(C)CC3 [Compound 26, 8-methoxy-3-methyl-2,3,4,5-tetrahydro-1H-benzofuro[2,3-d]azepine]	> 10	1 to 10		
FC(F)(F)Oc1ccc2c3c(sc2c1)CCNCC3 [Compound 66, 8-(trifluoromethoxy)-2,3,4,5-tetrahydro-1H-benzo[4,5]thieno[2,3-d]azepine]			0.101 to 1	0.101 to 1
Fc1ccc2c3c(oc2c1)CCCNC3 [Compound 6, 8-fluoro-2,3,4,5-tetrahydro-1H-benzofuro[3,2-c]azepine]	1 to 10	> 10		
COc1ccc2c3c(sc2c1)CCN(CC(F)(F)F)CC3 [Compound 70, 8-methoxy-3-(2,2,2-trifluoroethyl)-2,3,4,5-tetrahydro-1H-benzo[4,5]thieno[2,3-d]azepine]			> 10	> 10
COc1ccc2c3c(sc2c1)CCN(C1CCC1)CC3 [Compound 74, 3-cyclobutyl-8-methoxy-2,3,4,5-tetrahydro-1H-benzo[4,5]thieno[2,3-d]azepine]			> 10	> 10
FC(F)(F)CN1CCc2oc3ccccc3c2CC1 [Compound 29, 3-(2,2,2-trifluoroethyl)-2,3,4,5-tetrahydro-1H-benzofuro[2,3-d]azepine]	> 10	> 10		
Fc1ccc2c3c(sc2c1)CCN(CC(F)(F)F)CC3 [Compound 71, 8-fluoro-3-(2,2,2-trifluoroethyl)-2,3,4,5-tetrahydro-1H-benzo[4,5]thieno[2,3-d]azepine]			> 10	> 10
CN1CCc2sc3cc(OCc4ccccc4)ccc3c2CC1 [Compound 79, 8-(benzyloxy)-3-methyl-2,3,4,5-tetrahydro-1H-benzo[4,5]thieno[2,3-d]azepine]			> 10	0.101 to 1

Compound	EC50 (5-HT2A [1]; benzofurans) [µM]	IC50 (5-HT2A [2]; benzofurans) [µM]	EC50 (5-HT2A [1]; benzothiophenes) [µM]	IC50 (5-HT2A [2]; benzothiophenes) [µM]
Fc1cccc2oc3c(c12)CN(CC(F)(F)F)CCC3 [Compound 5, 10-fluoro-2-(2,2,2-trifluoroethyl)-2,3,4,5-tetrahydro-1H-benzofuro[3,2-c]azepine]	> 10	> 10		
CN1CCc2oc3cc(OC(F)(F)F)ccc3c2CC1 [Compound 40, 3-methyl-8-(trifluoromethoxy)-2,3,4,5-tetrahydro-1H-benzofuro[2,3-d]azepine]	> 10	1 to 10		
CN1CCCc2oc3cccc(OCc4ccccc4)c3c2C1 [Compound 55, 10-(benzyloxy)-2-methyl-2,3,4,5-tetrahydro-1H-benzofuro[3,2-c]azepine]	> 10	0.01 to 0.1		
c1ccc(COc2ccc3c4c(sc3c2)CCN(C2CCC2)CC4)cc1 [Compound 78, 8-(benzyloxy)-3-cyclobutyl-2,3,4,5-tetrahydro-1H-benzo[4,5]thieno[2,3-d]azepine]			> 10	1 to 10
Fc1cccc2oc3c(c12)CCN(CC(F)(F)F)CC3 [Compound 8, 10-fluoro-3-(2,2,2-trifluoroethyl)-2,3,4,5-tetrahydro-1H-benzofuro[2,3-d]azepine]	1 to 10	> 10		
COc1ccc2c3c(oc2c1)CCCNC3 [Compound 19, 8-methoxy-2,3,4,5-tetrahydro-1H-benzofuro[3,2-c]azepine]	> 10	> 10		
FC(F)(F)Oc1ccc2c3c(sc2c1)CCN(C1CCC1)CC3 [Compound 76, 3-cyclobutyl-8-(trifluoromethoxy)-2,3,4,5-tetrahydro-1H-benzo[4,5]thieno[2,3-d]azepine]			> 10	1 to 10
FC(F)(F)CN1CCc2sc3ccccc3c2CC1 [Compound 69, 3-(2,2,2-trifluoroethyl)-2,3,4,5-tetrahydro-1H-benzo[4,5]thieno[2,3-d]azepine]			> 10	> 10
c1ccc(COc2cccc3oc4c(c23)CNCCC4)cc1 [Compound 51, 10-(benzyloxy)-2,3,4,5-tetrahydro-1H-benzofuro[3,2-c]azepine]	> 10	1 to 10		
c1ccc(COc2ccc3c4c(oc3c2)CCNCC4)cc1 [Compound 45, 8-(benzyloxy)-2,3,4,5-tetrahydro-1H-benzofuro[2,3-d]azepine]	1 to 10	1 to 10		
c1ccc(COc2ccc3c4c(sc3c2)CCNCC4)cc1 [Compound 77, 8-(benzyloxy)-2,3,4,5-tetrahydro-1H-benzo[4,5]thieno[2,3-d]azepine]			> 10	1 to 10
CN1CCc2oc3cc(C(F)(F)F)ccc3c2CC1 [Compound 39, 3-methyl-8-(trifluoromethyl)-2,3,4,5-tetrahydro-1H-benzofuro[2,3-d]azepine]	> 10	1 to 10		
COc1cccc2oc3c(c12)CCNCC3 [Compound 16, 10-methoxy-2,3,4,5-tetrahydro-1H-benzofuro[2,3-d]azepine]	0.01 to 0.1	0.101 to 1		
COc1ccc2c3c(oc2c1)CCNCC3 [Compound 27, 8-methoxy-2,3,4,5-tetrahydro-1H-benzofuro[2,3-d]azepine]	1 to 10	1 to 10		
COc1ccc2c3c(oc2c1)CCCN(CC(F)(F)F)C3 [Compound 11, 8-methoxy-2-(2,2,2-trifluoroethyl)-2,3,4,5-tetrahydro-1H-benzofuro[3,2-c]azepine]	> 10	> 10		
CN1CCCc2oc3cc(OC(F)(F)F)ccc3c2C1 [Compound 53, 2-methyl-8-(trifluoromethoxy)-2,3,4,5-tetrahydro-1H-benzofuro[3,2-c]azepine]	> 10	> 10		
CN1CCc2oc3cccc(F)c3c2CC1 [Compound 3, 10-fluoro-3-methyl-2,3,4,5-tetrahydro-1H-benzofuro[2,3-d]azepine]	0.101 to 1	0.101 to 1		
COc1ccc2c3c(sc2c1)CCNCC3 [Compound 35, 8-methoxy-2,3,4,5-tetrahydro-1H-benzo[4,5]thieno[2,3-d]azepine]			0.101 to 1	1 to 10
FC(F)(F)CN1CCCc2oc3ccccc3c2C1 [Compound 13, 2-(2,2,2-trifluoroethyl)-2,3,4,5-tetrahydro-1H-benzofuro[3,2-c]azepine]	> 10	> 10		
